Reference: the NIST ThermoML archive (doi:10.1016/j.tca.2015.01.022)
Numbers after ± are expanded uncertainties.

Assay: Molar enthalpy of transition or fusion
Conditions: Crystal; Adiabatic calorimetry

With `CCCCCCCC[n+]1ccn(C)c1.F[B-](F)(F)F` [1-methyl-3-octylimidazolium tetrafluoroborate] as the compound, how does the “Molar enthalpy of transition or fusion” value read?
Its value is 3.659 ± 0.012 kcal/mol.
